Reference: ChEMBL document CHEMBL1158701, “Sesquiterpene phenylpropanoids from Ferula fukanensis and their nitric oxide production inhibitory effects” (J Nat Prod, 2005)
pIC50: −log10 of the molar value. The source made the active and inactive calls. No cut-off for these calls is given here.

test system: RAW264.7; assay: Inhibition of LPS/IFNgamma -induced NO production in mouse RAW264.7 cells at 30 ug/ml after 16 hrs; type: functional, cell-based; settings: not given

Row | SMILES | Activity
1 | CC(C)=CCC/C(C)=C/CC[C@]1(C)OC(=O)[C@H](C(=O)c2ccc(O)cc2O)[C@H]1C (relative stereo) | inactive
2 | COc1ccc(C(=O)[C@H]2C(=O)O[C@](C)(CC/C=C(\C)CCC=C(C)C)[C@@H]2C)c(O)c1 (relative stereo) | inactive

test system: RAW264.7; assay: Inhibition of LPS/IFNgamma -induced NO production in mouse RAW264.7 cells after 16 hrs; type: functional, cell-based; settings: RAW264.7, 16 h

Row | pIC50 | SMILES
3 | 3.95 | CCCCOC(=O)C(=O)c1ccc(O)cc1O [FUKANEKETOESTER A]
4 | 5.17 | CC(C)=CC(=O)/C=C(\C)CCC[C@@]1(C)OC(=O)[C@H](C(=O)c2ccc(O)cc2O)[C@H]1C (relative stereo) [FUKANEDONE C]
5 | 4.56 | CC(C)=CC(=O)/C=C(/C)CCC[C@@]1(C)OC(=O)[C@H](C(=O)c2ccc(O)cc2O)[C@H]1C (relative stereo) [FUKANEDONE D]
6 | 4.12 | COc1ccc(C(=O)[C@H]2C(=O)O[C@](C)(CC/C=C(\C)Cc3cc(C)co3)[C@@H]2C)c(O)c1 (relative stereo) [FUKANEDONE E]
